Assays:
[1] = biological target: T1, SMYD3 (Homo sapiens (Human), UniProt Q9H7B4); assay: SMYD3 biochemical assay (SPA, 3H-SAM methylation of MEKK2 protein substrate); details: read-out: SMYD3 Biochem IC50*
Summary of the method: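 SPA methyltransferase format: tag-cleaved human SMYD3, insect-cell GST-MEKK2 protein substrate, 3H-SAM donor, 30 min RT enzyme–compound preincubation, 100 uM cold SAM quench.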

[2] = biological target: T1, SMYD3; assay: SMYD3 cell assay (Trimethyl-MEKK2 In-Cell Western in 293T/17 cells); assay type: cell-based; details: read-out: SMYD3 Cell IC50*
Summary of the method: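 In-Cell Western readout: methanol-fixed cells stained for trimethyl-MEKK2 and flag tag, ratio per well normalized to DMSO and background controls.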

T1 sequence (Q9H7B4 whole entry): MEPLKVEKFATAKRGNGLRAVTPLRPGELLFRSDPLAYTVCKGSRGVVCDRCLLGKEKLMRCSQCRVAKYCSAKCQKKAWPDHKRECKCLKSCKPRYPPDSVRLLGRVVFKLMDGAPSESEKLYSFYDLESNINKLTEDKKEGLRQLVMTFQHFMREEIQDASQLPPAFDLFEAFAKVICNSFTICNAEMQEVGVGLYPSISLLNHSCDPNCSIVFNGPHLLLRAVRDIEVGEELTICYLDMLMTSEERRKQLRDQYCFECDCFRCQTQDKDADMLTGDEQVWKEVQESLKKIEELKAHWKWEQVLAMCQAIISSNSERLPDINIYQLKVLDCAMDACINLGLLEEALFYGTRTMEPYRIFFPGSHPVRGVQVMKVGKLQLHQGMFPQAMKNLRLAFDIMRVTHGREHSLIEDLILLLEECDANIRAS

Row | Structure (SMILES) | IC50 [1] | IC50 [2]
1 | COCCN[C@H]1CC[C@@H](S(=O)(=O)N2[C@@H]3CC[C@H]2C[C@@H](NC(=O)c2cc(C4CC4)on2)C3)CC1 [compound 826, 5-cyclopropyl-N-((1R,3R,5S)-8-(((1s,4S)-4-((2-methoxyethyl)amino)cyclohexyl)sulfonyl)-8-azabicyclo[3.2.1]octan-3-yl)isoxazole-3-carboxamide] | 0.00392 µM | 0.0584 µM
2 | C[C@H]1C[C@@H](NC(=O)c2cc(C3CC3)on2)CCN1S(=O)(=O)CC1CCCC(N)C1 (stereo partly drawn) [compound 827, N-((2S,4S)-1-(((3-aminocyclohexyl)methyl)sulfonyl)-2-methylpiperidin-4-yl)-5-cyclopropylisoxazole-3-carboxamide] | 0.004 µM | 0.0727 µM
3 | C[C@H]1C[C@@H](NC(=O)c2cc(C3CC3)on2)CCN1S(=O)(=O)N1C2CNCC1C2 [compound 828, N-((2S,4S)-1-((3,6-diazabicyclo[3.1.1]heptan-6-yl)sulfonyl)-2-methylpiperidin-4-yl)-5-cyclopropylisoxazole-3-carboxamide] | 0.00418 µM | 0.15 µM
4 | CCNC1CCN(S(=O)(=O)N2CC[C@H](NC(=O)c3cc(C4CC4)on3)C[C@@H]2C)CC1 [compound 829, 5-cyclopropyl-N-((2S,4S)-1-((4-(ethylamino)piperidin-1-yl)sulfonyl)-2-methylpiperidin-4-yl)isoxazole-3-carboxamide] | 0.0043 µM | 0.0702 µM
5 | NCC1CCN(S(=O)(=O)N2[C@@H]3CC[C@H]2C[C@@H](NC(=O)c2cc(C4CC4)on2)C3)CC1 [compound 830, N-((1R,3r,5S)-8-((4-(aminomethyl)piperidin-1-yl)sulfonyl)-8-azabicyclo[3.2.1]octan-3-yl)-5-cyclopropylisoxazole-3-carboxamide] | 0.00434 µM | 1.55 µM
6 | CC1CN(S(=O)(=O)N2[C@@H]3CC[C@H]2C[C@@H](NC(=O)c2cc(C4CC4)on2)C3)CCC1N (stereo partly drawn) [compound 831, N-((1R,3r,5S)-8-((4-amino-3-methylpiperidin-1-yl)sulfonyl)-8-azabicyclo[3.2.1]octan-3-yl)-5-cyclopropylisoxazole-3-carboxamide] | 0.00436 µM | 0.0851 µM
7 | O=C(N[C@H]1C[C@H]2CC[C@@H](C1)N2S(=O)(=O)N1C2CNCC1C2)c1cc(C2CC2)on1 [compound 832, N-((1R,3r,5S)-8-((3,6-diazabicyclo[3.1.1]heptan-6-yl)sulfonyl)-8-azabicyclo[3.2.1]octan-3-yl)-5-cyclopropylisoxazole-3-carboxamide] | 0.00438 µM | 0.134 µM
8 | CCc1cc(C(=O)N[C@H]2C[C@H]3CC[C@@H](C2)N3S(=O)(=O)[C@H]2CC[C@@H](NCCO)CC2)no1 [compound 833, 5-ethyl-N-((1R,3R,5S)-8-(((1s,4S)-4-((2-hydroxyethyl)amino)cyclohexyl)sulfonyl)-8-azabicyclo[3.2.1]octan-3-yl)isoxazole-3-carboxamide] | 0.00447 µM | 0.0722 µM
9 | CN(CCCO)C1CCN(S(=O)(=O)N2[C@@H]3CC[C@H]2C[C@@H](NC(=O)c2cc(C4CC4)on2)C3)CC1 [compound 834, 5-cyclopropyl-N-((1R,3r,5S)-8-((4-((3-hydroxypropyl)(methyl)amino)piperidin-1-yl)sulfonyl)-8-azabicyclo[3.2.1]octan-3-yl)isoxazole-3-carboxamide] | 0.00457 µM | 0.0487 µM
10 | O=C(N[C@H]1C[C@H]2CC[C@@H](C1)N2S(=O)(=O)N1CCC2(CCCN2)CC1)c1cc(C2CC2)on1 [compound 835, N-((1R,3r,5S)-8-((1,8-diazaspiro[4.5]decan-8-yl)sulfonyl)-8-azabicyclo[3.2.1]octan-3-yl)-5-cyclopropylisoxazole-3-carboxamide] | 0.00463 µM | 0.118 µM
11 | C[C@H]1C[C@@H](NC(=O)c2cc(C3CC3)on2)CCN1S(=O)(=O)C[C@H]1CCC[C@H](N)C1 [compound 836, N-((2S,4S)-1-((((1S,3S)-3-aminocyclohexyl)methyl)sulfonyl)-2-methylpiperidin-4-yl)-5-cyclopropylisoxazole-3-carboxamide] | 0.00464 µM | 0.089 µM
12 | C[C@H]1CN(S(=O)(=O)[C@H]2CC[C@H](N(C)C)CC2)CC[C@H]1NC(=O)c1cc(C2CC2)on1 [compound 837, 5-cyclopropyl-N-((3S,4R)-1-(((1r,4S)-4-(dimethylamino)cyclohexyl)sulfonyl)-3-methylpiperidin-4-yl)isoxazole-3-carboxamide] | 0.00482 µM | 0.0844 µM
13 | CN(CCCC(F)(F)F)C1CCN(S(=O)(=O)N2[C@@H]3CC[C@H]2C[C@@H](NC(=O)c2cc(C4CC4)on2)C3)CC1 [compound 838, 5-cyclopropyl-N-((1R,3r,5S)-8-((4-(methyl(4,4,4-trifluorobutyl)amino)piperidin-1-yl)sulfonyl)-8-azabicyclo[3.2.1]octan-3-yl)isoxazole-3-carboxamide] | 0.0049 µM | 0.0524 µM
14 | C[C@H]1C[C@@H](NC(=O)c2cc(C3CC3)on2)CCN1S(=O)(=O)N1CCC(N(C)Cc2ccccc2)CC1 [compound 839, N-((2S,4S)-1-((4-(benzyl(methyl)amino)piperidin-1-yl)sulfonyl)-2-methylpiperidin-4-yl)-5-cyclopropylisoxazole-3-carboxamide] | 0.00497 µM | 0.154 µM
15 | O=C(N[C@H]1C[C@H]2CC[C@@H](C1)N2S(=O)(=O)N1CC2CC1CN2)c1cc(C2CC2)on1 [compound 840, N-((1R,3r,5S)-8-((2,5-diazabicyclo[2.2.1]heptan-2-yl)sulfonyl)-8-azabicyclo[3.2.1]octan-3-yl)-5-cyclopropylisoxazole-3-carboxamide] | 0.00501 µM | 0.056 µM
16 | C[C@H]1C[C@@H](NC(=O)c2cc(C3CC3)on2)CCN1S(=O)(=O)CC[C@@H]1CCNC1 [compound 841, 5-cyclopropyl-N-((2S,4S)-2-methyl-1-((2-((S)-pyrrolidin-3-yl)ethyl)sulfonyl)piperidin-4-yl)isoxazole-3-carboxamide] | 0.00505 µM | 0.124 µM
17 | C[C@H](C1CCNCC1)S(=O)(=O)N1[C@@H]2CC[C@H]1C[C@@H](NC(=O)c1cc(C3CC3)on1)C2 [compound 842, 5-cyclopropyl-N-((1R,3R,5S)-8-(((R)-1-(piperidin-4-yl)ethyl)sulfonyl)-8-azabicyclo[3.2.1]octan-3-yl)isoxazole-3-carboxamide] | 0.0051 µM | 0.029 µM
18 | CC(C)CNC1CCN(S(=O)(=O)N2CC[C@H](NC(=O)c3cc(C4CC4)on3)C[C@@H]2C)CC1 [compound 843, 5-cyclopropyl-N-((2S,4S)-1-((4-(isobutylamino)piperidin-1-yl)sulfonyl)-2-methylpiperidin-4-yl)isoxazole-3-carboxamide] | 0.00511 µM | 0.0777 µM
19 | CN(CCc1ccccc1)C1CCN(S(=O)(=O)N2[C@@H]3CC[C@H]2C[C@@H](NC(=O)c2cc(C4CC4)on2)C3)CC1 [compound 844, 5-cyclopropyl-N-((1R,3r,5S)-8-((4-(methyl(phenethyl)amino)piperidin-1-yl)sulfonyl)-8-azabicyclo[3.2.1]octan-3-yl)isoxazole-3-carboxamide] | 0.00528 µM | 0.305 µM
20 | O=C(N[C@H]1C[C@H]2CC[C@@H](C1)N2S(=O)(=O)N1CCC(NCCCO)CC1)c1cc(C2CC2)on1 [compound 845, 5-cyclopropyl-N-((1R,3r,5S)-8-((4-((3-hydroxypropyl)amino)piperidin-1-yl)sulfonyl)-8-azabicyclo[3.2.1]octan-3-yl)isoxazole-3-carboxamide] | 0.0053 µM | 0.0863 µM
21 | CC(C)CCN(C)C1CCN(S(=O)(=O)N2[C@@H]3CC[C@H]2C[C@@H](NC(=O)c2cc(C4CC4)on2)C3)CC1 [compound 846, 5-cyclopropyl-N-((1R,3r,5S)-8-((4-(isopentyl(methyl)amino)piperidin-1-yl)sulfonyl)-8-azabicyclo[3.2.1]octan-3-yl)isoxazole-3-carboxamide] | 0.00536 µM | 0.0802 µM
22 | C[C@H]1C[C@@H](NC(=O)c2cc(C3CC3)on2)CCN1S(=O)(=O)N1CCC(N2CCCC2)CC1 [compound 847, 5-cyclopropyl-N-((2S,4S)-2-methyl-1-((4-(pyrrolidin-1-yl)piperidin-1-yl)sulfonyl)piperidin-4-yl)isoxazole-3-carboxamide] | 0.00553 µM | 0.0758 µM
23 | O=C(N[C@H]1C[C@H]2CC[C@@H](C1)N2S(=O)(=O)N1CCC(NCc2ccc(F)cc2)CC1)c1cc(C2CC2)on1 [compound 848, 5-cyclopropyl-N-((1R,3r,5S)-8-((4-((4-fluorobenzyl)amino)piperidin-1-yl)sulfonyl)-8-azabicyclo[3.2.1]octan-3-yl)isoxazole-3-carboxamide] | 0.00573 µM | 0.153 µM
24 | O=C(N[C@H]1C[C@H]2CC[C@@H](C1)N2S(=O)(=O)N1CCC2(CCN2)CC1)c1cc(C2CC2)on1 [compound 849, N-((1R,3r,5S)-8-((1,7-diazaspiro[3.5]nonan-7-yl)sulfonyl)-8-azabicyclo[3.2.1]octan-3-yl)-5-cyclopropylisoxazole-3-carboxamide] | 0.00595 µM | 0.062 µM
25 | O=C(N[C@H]1C[C@H]2CC[C@@H](C1)N2S(=O)(=O)N1CC2CCC(C1)N2CCCO)c1cc(C2CC2)on1 [compound 850, 5-cyclopropyl-N-((1R,3r,5S)-8-((8-(3-hydroxypropyl)-3,8-diazabicyclo[3.2.1]octan-3-yl)sulfonyl)-8-azabicyclo[3.2.1]octan-3-yl)isoxazole-3-carboxamide] | 0.00621 µM | 0.0588 µM
26 | COCCN(C)C1CCN(S(=O)(=O)N2CC[C@H](NC(=O)c3cc(C4CC4)on3)C[C@@H]2C)CC1 [compound 851, 5-cyclopropyl-N-((2S,4S)-1-((4-((2-methoxyethyl)(methyl)amino)piperidin-1-yl)sulfonyl)-2-methylpiperidin-4-yl)isoxazole-3-carboxamide] | 0.00644 µM | 0.125 µM
